Measurements reported in patent US6495688B2, “Deazapurine derivatives: a new class of CRF1 specific ligands” (Neurogen Corporation, priority 1995, dated 2002).
Structures can show the parent of a compound that is named as a salt.

How the values were obtained:
CRF receptors = target: T1, CRF receptors (Homo sapiens, UniProt P34998); experiment: CRF receptor binding assay (125I-CRF displacement); details: membrane preparation, 125I-CRF 100 pM, room temperature 2 hours
T1 sequence (P34998 24-415): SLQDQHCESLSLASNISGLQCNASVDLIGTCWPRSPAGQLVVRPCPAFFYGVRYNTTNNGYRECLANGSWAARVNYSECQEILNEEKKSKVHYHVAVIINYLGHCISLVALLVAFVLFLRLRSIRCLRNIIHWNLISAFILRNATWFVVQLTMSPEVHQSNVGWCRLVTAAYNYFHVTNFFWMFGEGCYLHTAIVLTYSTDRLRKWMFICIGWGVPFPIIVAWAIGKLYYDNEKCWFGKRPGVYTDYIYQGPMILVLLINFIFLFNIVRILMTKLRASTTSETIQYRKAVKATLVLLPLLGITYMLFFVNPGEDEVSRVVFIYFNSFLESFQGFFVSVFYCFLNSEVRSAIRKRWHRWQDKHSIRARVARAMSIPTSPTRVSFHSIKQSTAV
Method: Assay for CRF Receptor Binding Activity
CRF receptor binding was performed using a modified version of the assay described by Grigoriadis and De Souza (Biochemical, Pharmacological, and Autoradiographic Methods to Study Corticotropin-Releasing Factor Receptors. Methods in Neurosciences, Vol. 5, 1991). Membrane pellets containing CRF receptors were resuspended in 50 mM Tris buffer pH 7.7 containing 10 mM MgCl2 and 2 mM EGTA and centrifuged for 10 minutes at 48000 g. Membranes were washed again and brought to a final concentration of 1500 μg/ml in binding buffer (Tris buffer above with 0.1% BSA, 0.15 mM bacitracin and 0.01 mg/ml aprotinin.). For the binding assay, 100 ul of the membrane preparation was added to 96 well microtube plates containing 100 μl of ^125I-CRF (SA 2200 Ci/mmol, final concentration of 100 pM) and 50 μl of drug. Binding was carried out at room temperature for 2 hours. Plates were then harvested on a Brandel 96 well cell harvester and filters were counted for gamma emissions on a Wallac 1205 Betaplate liquid scintillation counter. Non specific binding was defined by 1 μM cold CRF. IC50 values were calculated with the non-linear curve fitting program RS/1 (BBN Software Products Corp., Cambridge, Mass.).

Row | SMILES | melting point [°C] | IC50 (CRF receptors) [µM]
1 | CCCN(CC1CC1)c1ncnc2c(-c3c(C)cc(C)cc3C)cn(C)c12 (as salt: HCl) [Compound 1, N-cyclopropylmethyl-N-propyl-5-methyl-7-(2,4,6-trimethylphenyl)-5H-pyrrolo[3,2-d]pyrimidin-4-amine] | 205 to 207 | –
2 | CCCN(CC1CC1)c1ncnc2c(-c3c(C)cc(C)cc3C)cn(C)c12 [Compound 1, N-cyclopropylmethyl-N-propyl-5-methyl-7-(2,4,6-trimethylphenyl)-5H-pyrrolo[3,2-d]pyrimidin-4-amine] | – | 0.11
3 | CCCN(CCC)c1ncnc2c(-c3c(C)cc(C)cc3C)cn(C)c12 [Compound 2, N,N-Dipropyl-5-methyl-7-(2,4,6trimethylphenyl)-5H-pyrrolo[3,2-d]pyrimidin-4-amine] | 116 to 118 | –
4 | CCCCN(CC)c1ncnc2c(-c3c(C)cc(C)cc3C)cn(C)c12 [Compound 5, N-Butyl-N-Ethyl-5-methyl-7-(2,4,6trimethylphenyl)-5H-pyrrolo[3,2-d]pyrimidin-4-amine] | 126 to 128 | 0.5
5 | Cc1cc(C)c(-c2cn(C)c3c(N4CCCCCC4)ncnc23)c(C)c1 [Compound 7, 4-(1-Homopiperidinyl)-5-methyl-7-(2,4,6-trimethylphenyl)-5H-pyrrolo[3,2-d]pyrimidine] | 140 to 142 | –
